Structures can show the parent of a compound that is named as a salt.
Legend:
Type in all cases: cell-based
[1] = tested on: Fusobacterium necrophorum 6054A; assay: Agar dilution susceptibility of anaerobic bacteria (Chart 1); details: agar dilution, 37° C., Fusobacterium necrophorum 6054A
Peptococcus prevoti 1281 = assay: as above; details: agar dilution, 37° C.
[2] = tested on: Bacteroides melaninogenicus 2736; assay: as above; details: agar dilution, 37° C., Bacteroides melaninogenicus 2736
[3] = tested on: Bacteroides vulgatis 1211; assay: as above; details: agar dilution, 37° C., Bacteroides vulgatis 1211
[4] = tested on: Peptococcus asaccharolyticus 1302; assay: as above; details: agar dilution, 37° C., Peptococcus asaccharolyticus 1302
[5] = tested on: Peptostreptococcus intermedius 1264; assay: as above; details: agar dilution, 37° C., Peptostreptococcus intermedius 1264
[6] = tested on: Actinomyces israelii W855; assay: as above; details: Actinomyces israelii, W855, 24 h, read-out: 24 Hr. MIC, agar dilution, 37° C.
[7] = tested on: Clostridium perfringens 81; assay: microbe, parasite or virus in culture; details: agar dilution, 37° C.
[8] = tested on: Clostridium septicum 1128; assay: Agar dilution susceptibility of anaerobic bacteria (Chart 1); details: 37° C.
Experimental: The susceptibility of anaerobic bacteria, both gram positive and gram negative, to a representative number of the novel compounds of this application was determined using the agar dilution method. The bacteria used were isolated from patients hospitalized at the Indiana Univerisity Medical Center. The isolates were identified in the anaerobe laboratory of the Medical Center by the criteria established by Dowell et al., Laboratory Methods in Anaerobic Bacteriology. Public Health Serv. Publ. NO. 1803 (1968) [Center for Disease Control, Atlanta, Ga.]; and by Smith et al., The Pathogenic Anaerobic Bacteria, pages 96- 136 (1968) [Charles C. Thomas, Publisher, Springfield, Ill.]. All the organisms were maintained in chopped meat glucose medium (Scott Labs) at room temperature.
The method used for the agar dilution tests was based on the studies of Sutter et al., Antimicrob. Ag. Chemother. 3, 188-193 (1973). The strains of anaerobic bacteria were grown in 16×× 120 mm. tubes for 16 to 18 hours in Thioglycolate medium without indicator-- 135C (Becton, Dickinson and Co.), to which was added 5 mcg. of hemin per milliliter prior to autoclaving, plus 1 mg. of sodium bicarbonate and 0.1 mcg. of filter-sterilized menadione per milliliter after autoclaving. The strains were adjusted to the turbidity of the No. 1 McFarland standard in Thioglycolate medium without indicator-- 135C containing an additional 0.13 percent Bacto-agar (Difco). Each strain was then applied to the surface of the petri plate (100 mm× 15 mm.) by means of a replicator.
For the agar dilution studies, two-fold dilutions of the test compounds were prepared in deionized water to which was then added laked sheep blood and filter-sterilized menadione so the concentrations after the agar dilution were 5 percent and 10 mcg./ml. respectively. An equal volume of double strength Brucella agar (Becton, Dickinson and Co.) was mixed with each dilution in a water bath held at 50° C. and then poured onto the petri dishes.
All of the procedures were done inside a plastic glove box, except for the incubation of the growth tubes and the pouring of the plates. After the plates hardened, they were put inside the glove box for a minimum of 2 hours before they were inoculated. Generally, the glove box procedures of Aranki et al., Applied Microbiology 17, 568-576 (1969), were followed, but the following modifications were used. Dry materials were introduced into the glove box by evacuating the lock to 28 inches of mercury and filling once with nitrogen gas, followed by evacuating in the same manner and filling with an 80 percent nitrogen plus 10 percent CO2 plus 10 percent hydrogen gas mixture. Liquid media and agar plates were introduced into the glove box by evacuating the lock to 10 inches of mercury and filling with gas four times. The nitrogen gas was used to fill the lock for the first two cycles of evacuation, with the gas mixture described above used for the final two fillings.
All the plates were incubated at 37° C. in Gas Pak jars (Becton, Dickinson and Co.) containing palladium-coated alumina catalysts (reactivated after each use). The results of the agar dilution tests were read after about 24 hours of incubation. The minimum inhibitory concentration (MIC) was recorded as the lowest concentration of test compound at which there was no growth.
The test compounds are identified by the number of the example describing their preparation. The antibiotics clindamycin (C), and erythromycin (E) were also run simultaneously with the novel compounds of this application,for comparison purposes, and the results are included in Chart 1 below.

[9] = tested on: Bacteroides fragilis sp. fragilis 1936B; assay: as above; details: agar dilution, 37° C., Bacteroides fragilis sp. fragilis 1936B
[10] = tested on: Bacteroides melaninogenicus 1856/28; assay: as above; details: agar dilution, 37° C., Bacteroides melaninogenicus 1856/28
[11] = tested on: Bacteroides corrodens 1874; assay: as above; details: agar dilution, 37° C., Bacteroides corrodens 1874
[12] = tested on: Propionibacterium acnes 79; assay: as above; details: Cutibacterium acnes, 79, 24 h, read-out: 24 Hr. MIC
[13] = tested on: Fusobacterium symbiosum 1470; assay: as above; details: agar dilution, 37° C., Fusobacterium symbiosum 1470
[14] = tested on: Peptostreptococcus anaerobius 1428; assay: as above; details: agar dilution, 37° C., Peptostreptococcus anaerobius 1428
[15] = tested on: Eubacterium aerofaciens 1235; assay: as above; details: agar dilution, 37° C., Eubacterium aerofaciens 1235
[16] = tested on: Bacteroides fragilis sp. fragilis 62; assay: as above; details: agar dilution, 37° C.; Bacteroides fragilis sp. fragilis 62; sodium salt
[17] = tested on: Bacteroides fragilis sp. fragilis 108; assay: as above; details: agar dilution, 37° C.; Bacteroides fragilis sp. fragilis 108; sodium salt
[18] = tested on: Bacteroides fragilis sp. fragilis 103; assay: as above; details: agar dilution, 37° C.; Bacteroides fragilis sp. fragilis 103; sodium salt
[19] = tested on: Bacteroides fragilis sp. vulgatis 1563; assay: as above; details: agar dilution, 37° C.; Bacteroides fragilis sp. vulgatis 1563; sodium salt
[20] = tested on: Bacteroides fragilis sp. fragilis 1451; assay: as above; details: agar dilution, 37° C.; Bacteroides fragilis sp. fragilis 1451; sodium salt
[21] = tested on: Bacteroides fragilis sp. fragilis 9; assay: as above; details: agar dilution, 37° C.; Bacteroides fragilis sp. fragilis 9; sodium salt
[22] = tested on: Bacteroides fragilis sp. fragilis 110; assay: as above; details: agar dilution, 37° C.; Bacteroides fragilis sp. fragilis 110; sodium salt
[23] = tested on: Bacteroides fragilis sp. thetaiotaomicron 1900A; assay: as above; details: agar dilution, 37° C.; Bacteroides fragilis sp. thetaiotaomicron 1900A; sodium salt
[24] = tested on: Bacteroides fragilis sp. fragilis 107; assay: as above; details: agar dilution, 37° C.; Bacteroides fragilis sp. fragilis 107; sodium salt
[25] = tested on: Bacteroides fragilis sp. fragilis 111; assay: as above; details: agar dilution, 37° C.; Bacteroides fragilis sp. fragilis 111; sodium salt
[26] = tested on: Bacteroides fragilis sp. fragilis 1877; assay: as above; details: agar dilution, 37° C.; Bacteroides fragilis sp. fragilis 1877; sodium salt
[27] = tested on: Bacteroides fragilis sp. thetaiotaomicron 1438; assay: as above; details: agar dilution, 37° C.; Bacteroides fragilis sp. thetaiotaomicron 1438; sodium salt
[28] = tested on: Bacteroides fragilis sp. fragilis 2; assay: as above; details: agar dilution, 37° C.; Bacteroides fragilis sp. fragilis 2; sodium salt
[29] = tested on: Bacteroides fragilis sp. fragilis 1470; assay: as above; details: agar dilution, 37° C.; Bacteroides fragilis sp. fragilis 1470; sodium salt
[30] = tested on: Bacteroides fragilis sp. fragilis 112; assay: as above; details: agar dilution, 37° C.; Bacteroides fragilis sp. fragilis 112; sodium salt
[31] = tested on: Bacteroides fragilis sp. fragilis 113; assay: as above; details: agar dilution, 37° C.; Bacteroides fragilis sp. fragilis 113; sodium salt

SMILES: CCOC(=O)C(=O)Nc1c(C#N)c(-c2ncc([N+](=O)[O-])n2C)nn1C [Example 4, N-[4-Cyano-1-methyl-3-(1-methyl-5-nitroimidazol-2-yl)pyrazol-5-yl]oxamic acid, ethyl ester, ammonium salt]
- 24 Hr. MIC ([1]; ammonium salt): ≤ 0.5 µg/mL
- 24 Hr. MIC (Peptococcus prevoti 1281; ammonium salt): 32 µg/mL
- 24 Hr. MIC ([2]; ammonium salt): ≤ 0.5 µg/mL
- 24 Hr. MIC ([3]; ammonium salt): ≤ 0.5 µg/mL
- 24 Hr. MIC ([4]; ammonium salt): ≤ 0.5 µg/mL
- 24 Hr. MIC ([5]; ammonium salt): ≤ 0.5 µg/mL
- MIC [6]: > 128 µg/mL
- 24 Hr. MIC ([7]; ammonium salt): ≤ 0.5 µg/mL
- 24 Hr. MIC ([8]; ammonium salt): 16 µg/mL
- 24 Hr. MIC ([9]; ammonium salt): ≤ 0.5 µg/mL
- 24 Hr. MIC ([10]; ammonium salt): 1.0 µg/mL
- 24 Hr. MIC ([11]; ammonium salt): ≤ 0.5 µg/mL
- MIC [12]: > 128 µg/mL
- 24 Hr. MIC ([13]; ammonium salt): ≤ 0.5 µg/mL
- 24 Hr. MIC ([14]; ammonium salt): ≤ 0.5 µg/mL
- 24 Hr. MIC ([15]; ammonium salt): ≤ 0.5 µg/mL

SMILES: Cn1nc(-c2ncc([N+](=O)[O-])n2C)c(C#N)c1NC(=O)C(=O)NN [Example 8, 5-[4-Cyano-1-methyl-3-(1-methyl-5-nitroimidazol-2-yl)pyrazol-5-yl]semioxamazide, sodium salt]
- 24 Hr. MIC ([1]; sodium salt): 0.5 µg/mL
- 24 Hr. MIC (Peptococcus prevoti 1281; sodium salt): 32 µg/mL
- 24 Hr. MIC ([2]; sodium salt): 0.5 µg/mL
- 24 Hr. MIC ([3]; sodium salt): 1.0 µg/mL
- 24 Hr. MIC ([4]; sodium salt): 1.0 µg/mL
- MIC [6]: > 128 µg/mL
- 24 Hr. MIC ([7]; sodium salt): 2 µg/mL
- 24 Hr. MIC ([9]; sodium salt): 1.0 µg/mL
- 24 Hr. MIC ([10]; sodium salt): 16 µg/mL
- 24 Hr. MIC ([11]; sodium salt): 1.0 µg/mL
- MIC [12]: > 128 µg/mL
- 24 Hr. MIC ([13]; sodium salt): 0.5 µg/mL
- 24 Hr. MIC ([14]; sodium salt): 0.5 µg/mL
- 24 Hr. MIC ([15]; sodium salt): 4 µg/mL

SMILES: Cn1nc(-c2ncc([N+](=O)[O-])n2C)c(C#N)c1NC(=O)C(=O)c1ccccc1 [Example 11, N-[4-Cyano-1-methyl-3-(1-methyl-5-nitroimidazol-2-yl)pyrazol-5-yl]-2-phenylglyoxylamide, sodium salt]
- 24 Hr. MIC ([1]; sodium salt): 0.25 µg/mL
- 24 Hr. MIC [16]: 0.06 µg/mL
- 24 Hr. MIC [17]: 0.06 µg/mL
- 24 Hr. MIC [18]: 0.06 µg/mL
- 24 Hr. MIC (Peptococcus prevoti 1281; sodium salt): 2 µg/mL
- 24 Hr. MIC ([2]; sodium salt): ≤ 0.03 µg/mL
- 24 Hr. MIC [19]: 0.25 µg/mL
- 24 Hr. MIC ([3]; sodium salt): 1.0 µg/mL
- 24 Hr. MIC ([5]; sodium salt): 32 µg/mL
- 24 Hr. MIC ([7]; sodium salt): 0.5 µg/mL
- 24 Hr. MIC ([8]; sodium salt): 0.25 µg/mL
- 24 Hr. MIC [20]: 0.125 µg/mL
- 24 Hr. MIC ([9]; sodium salt): 0.06 µg/mL
- 24 Hr. MIC ([10]; sodium salt): 16 µg/mL
- 24 Hr. MIC ([11]; sodium salt): 0.25 µg/mL
- 24 Hr. MIC [21]: 0.06 µg/mL
- 24 Hr. MIC [22]: 0.06 µg/mL
- 24 Hr. MIC [23]: 0.125 µg/mL
- 24 Hr. MIC [24]: 0.06 µg/mL
- 24 Hr. MIC [25]: 0.06 µg/mL
- 24 Hr. MIC [26]: 0.06 µg/mL
- 24 Hr. MIC [27]: 0.125 µg/mL
- 24 Hr. MIC [28]: 0.06 µg/mL
- 24 Hr. MIC [29]: 0.06 µg/mL
- 24 Hr. MIC [30]: 0.06 µg/mL
- 24 Hr. MIC ([14]; sodium salt): 0.25 µg/mL
- 24 Hr. MIC [31]: 0.125 µg/mL
- 24 Hr. MIC ([15]; sodium salt): 0.5 µg/mL
